Values of other authors as cited in patent US20030082231A1, “Coating for orally administered compositions” (priority 2001, published 2003).

Test system: sister chromatid exchanges (SCE) damage induced by benzo(a)pyrene

chlorophyllin
genotoxic inhibition (frequency of sister chromatid exchanges) (SCE damage induced by benzo(a)pyrene, in vivo): about 80% | cell proliferation kinetics (CPK) (chlorophyllin plus benzo(a)pyrene): inhibition of the cell proliferation kinetics
